From ChEMBL document CHEMBL1201862, “PubChem BioAssay data set” (2004) come the findings set out here.

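Values below derive from 48-hour exposures of cells grown in 96-well plates, with endpoints linearly interpolated between the two concentrations bracketing the appropriate inhibition level. GI50 marks 50% less growth.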 The source made the active and inactive calls. No stated cut-off is given here; in the data, active = GI50 up to about 1.1 µM and inactive = higher. Some results are limits rather than exact numbers.

Some test systems named below: A549; CCRF-CEM; COLO 205; EKVX; HCT-116; HCT-15; M14; NCI-H226; NCI-H23; OVCAR-8; SK-MEL-2; SK-MEL-5; SN12C; SNB-75; TK-10; UACC-257; IGROV-1.
Holding throughout (assay): NCI tumour cell line growth inhibition, 48 h

For `[N-]=[N+]=Nc1nnc(CCCCc2nnc(N=[N+]=[N-])o2)o1`, the GI50 was > 100 µM (inactive) in the experiment on A549; > 100 µM (inactive) in the experiment with CCRF-CEM; > 100 µM (inactive) with COLO 205; > 100 µM (inactive) in the experiment on EKVX; > 100 µM (inactive) with HCT-116; over 100 µM with HCT-15. The GI50 in the experiment with M14, in the experiment with NCI-H226, with NCI-H23, with OVCAR-8, in the experiment with SK-MEL-2 and in the experiment with SK-MEL-5 was > 100 µM (inactive) each time. For the same compound, the GI50 with SN12C, in the experiment with SNB-75, with TK-10 and in the experiment on UACC-257 was > 100 µM (inactive) throughout.
Regarding `N#Cc1cc([N+](=O)[O-])ccc1NC(=O)C(F)(F)F`, the GI50 in the experiment with A549 is > 74.3 µM (inactive); in the experiment on CCRF-CEM, > 84.7 µM (inactive); in the experiment with COLO 205 it was 20.7 µM (inactive); with EKVX, > 100 µM (inactive); with HCT-116, > 42.9 µM (inactive); in the experiment on HCT-15 it was over 41.4 µM. The GI50 with IGROV-1 was > 100 µM (inactive); in the experiment on M14 it was > 100 µM (inactive); in the experiment on NCI-H226 it was > 88.7 µM (inactive); with NCI-H23, > 100 µM (inactive); in the experiment with OVCAR-8 it was > 84.3 µM (inactive); in the experiment on SK-MEL-2, > 100 µM (inactive). Moreover, the GI50 in the experiment with SK-MEL-5 was > 100 µM (inactive); with SN12C, > 100 µM (inactive); in the experiment with SNB-75, > 49.7 µM (inactive); in the experiment with TK-10, > 100 µM (inactive); in the experiment on UACC-257, > 100 µM (inactive).
On to `COC(=O)C(=O)C(C(=O)C(=O)Nc1cc([N+](=O)[O-])ccc1[N+](=O)[O-])c1nc2ccc(C(=O)c3ccccc3)cc2nc1O` (stereo not given), for which the GI50 is 43.8 µM (inactive) with A549; 25.2 µM (inactive) in the experiment on CCRF-CEM; 32.6 µM (inactive) in the experiment on COLO 205; 39.3 µM (inactive) in the experiment on EKVX; 40.6 µM (inactive) in the experiment with HCT-116; 56.5 µM with HCT-15. Also, the GI50 was 33.6 µM (inactive) in the experiment on IGROV-1; 33.1 µM (inactive) with M14; 25.4 µM (inactive) in the experiment with NCI-H226; 25.2 µM (inactive) in the experiment on NCI-H23; 26.9 µM (inactive) in the experiment on OVCAR-8; 37.2 µM (inactive) in the experiment on SK-MEL-2. The GI50 was 18.3 µM (inactive) in the experiment with SK-MEL-5, 44.2 µM (inactive) with SN12C and 34.3 µM (inactive) with UACC-257.
Take `CN/N=C(\C(=O)Nc1ccc(C(F)(F)F)cc1[N+](=O)[O-])C(c1cnc2ccc([N+](=O)[O-])cc2n1)[N+](=O)[O-]` (stereo not given): the GI50 in the experiment on A549 was 28 µM (inactive); in the experiment with CCRF-CEM it was 9.77 µM (inactive); in the experiment on COLO 205 it was 28.6 µM (inactive); in the experiment on EKVX, 6.71 µM (inactive); in the experiment with HCT-116, 41.4 µM (inactive); in the experiment on HCT-15 it was 37.1 µM. For the same compound, the GI50 was > 100 µM (inactive) in the experiment on IGROV-1; > 100 µM (inactive) in the experiment with M14; 17.9 µM (inactive) in the experiment with NCI-H226; 62.7 µM (inactive) in the experiment with NCI-H23; 59 µM (inactive) with OVCAR-8; > 100 µM (inactive) with SK-MEL-2. For the same compound, the results for the GI50 in the experiment on SK-MEL-5, in the experiment with SN12C and with UACC-257 were 28.1 µM (inactive), > 100 µM (inactive) and 44.5 µM (inactive), respectively.
For the compound `Cc1cc2c(C)n(Cc3ccc(Cl)cc3Cl)nc2c(C#N)c1C`, the GI50 is 28.2 µM (inactive) in the experiment on A549; > 100 µM (inactive) in the experiment with CCRF-CEM; > 95.5 µM (inactive) in the experiment with COLO 205; 57.1 µM (inactive) in the experiment on EKVX; 29.8 µM (inactive) in the experiment on HCT-116; over 100 µM in the experiment on HCT-15. Moreover, the GI50 was 41 µM (inactive) in the experiment on IGROV-1; 49 µM (inactive) with M14; > 42.2 µM (inactive) with NCI-H226; 41.7 µM (inactive) with NCI-H23; 14.8 µM (inactive) with OVCAR-8; > 61.4 µM (inactive) in the experiment on SK-MEL-2. Also, the GI50 in the experiment on SK-MEL-5 is 85.3 µM (inactive); in the experiment with SN12C, 53.3 µM (inactive); with SNB-75 it was 7.94 µM (inactive); with TK-10 it was 23.7 µM (inactive); with UACC-257, > 100 µM (inactive).
With `CC1(C)OC2C(=O)OC(COCc3ccccc3)C2O1` (stereo not given), the GI50 in the experiment on A549 is > 100 µM (inactive); in the experiment with CCRF-CEM, > 100 µM (inactive); in the experiment with COLO 205 it was > 100 µM (inactive); with EKVX, > 100 µM (inactive); with HCT-116, > 100 µM (inactive); with HCT-15, over 100 µM. For the same compound, the GI50 with IGROV-1, in the experiment on M14, in the experiment with NCI-H226, in the experiment with NCI-H23, in the experiment with OVCAR-8 and in the experiment with SK-MEL-2 was > 100 µM (inactive) each time. The GI50 with SK-MEL-5, with SN12C, in the experiment on SNB-75, with TK-10 and with UACC-257 was > 100 µM (inactive) throughout.
For the compound `Nc1nc2c(ncn2Cc2ccccc2CCO)c(=O)[nH]1`, the GI50 is > 100 µM (inactive) in the experiment on A549; > 100 µM (inactive) in the experiment with CCRF-CEM; > 100 µM (inactive) in the experiment on COLO 205; > 100 µM (inactive) in the experiment on EKVX; over 100 µM in the experiment with HCT-15; > 100 µM (inactive) in the experiment with IGROV-1. The GI50 in the experiment on M14 was > 100 µM (inactive); in the experiment with NCI-H226, 41 µM (inactive); with NCI-H23, > 100 µM (inactive); in the experiment with OVCAR-8 it was > 100 µM (inactive); in the experiment with SK-MEL-2, > 100 µM (inactive); with SK-MEL-5, > 100 µM (inactive). In addition, the GI50 with SN12C, in the experiment on SNB-75 and with TK-10 was > 100 µM (inactive) throughout.
In the case of `COc1ccc(C2Oc3c(c(O)cc4c3[C@H](c3ccc(O)cc3O)[C@H](O)C(c3ccc(O)c(O)c3)O4)C[C@@H]2O)cc1O` (stereo not given in full), the GI50 was > 100 µM (inactive) in the experiment with A549; > 100 µM (inactive) in the experiment on CCRF-CEM; > 100 µM (inactive) in the experiment with COLO 205; > 100 µM (inactive) with EKVX; > 100 µM (inactive) in the experiment with HCT-116; over 100 µM in the experiment on HCT-15. Further, the GI50 in the experiment with IGROV-1, in the experiment with M14, with NCI-H226, in the experiment on NCI-H23, in the experiment on OVCAR-8 and with SK-MEL-2 was > 100 µM (inactive) throughout. Further, the GI50 in the experiment with SK-MEL-5, in the experiment with SN12C, in the experiment with SNB-75, in the experiment with TK-10 and in the experiment with UACC-257 was > 100 µM (inactive) throughout.
With `COC(=O)C(=O)C(C(C)=O)C(=O)NCc1ccc(OC)c(OC)c1` (stereo not given), the GI50 in the experiment on A549 is > 100 µM (inactive); in the experiment with CCRF-CEM, > 100 µM (inactive); with COLO 205 it was > 100 µM (inactive); with EKVX it was > 100 µM (inactive); in the experiment with HCT-116, > 100 µM (inactive); with HCT-15, over 100 µM. Besides, the GI50 with IGROV-1, in the experiment with M14, with NCI-H226, with NCI-H23, with OVCAR-8 and with SK-MEL-2 was > 100 µM (inactive) in each case. For the same compound, the GI50 in the experiment on SK-MEL-5, in the experiment on SN12C, in the experiment on SNB-75, in the experiment on TK-10 and with UACC-257 was > 100 µM (inactive) throughout.
As to `Clc1cccc(C2SCc3nc4ccccc4n32)c1` (stereo not given), the GI50 is 42.9 µM (inactive) in the experiment on A549; 27.4 µM (inactive) in the experiment with CCRF-CEM; 4.79 µM (inactive) in the experiment on COLO 205; 17.5 µM (inactive) with EKVX; 16.8 µM in the experiment on HCT-15; 22.3 µM (inactive) with IGROV-1. Also, the GI50 with M14 was 19.7 µM (inactive); in the experiment with NCI-H226, 12.8 µM (inactive); in the experiment on NCI-H23, 18.3 µM (inactive); with OVCAR-8, 24.8 µM (inactive); in the experiment on SN12C, 13.8 µM (inactive); with SNB-75, 3.52 µM (inactive). For the same compound, the GI50 in the experiment on TK-10 is 25.6 µM (inactive).
For the compound `COC(=O)/C(=N/NC(C)(C)C)C(C(=O)C=C(C)C)C(=O)C(=O)Nc1ccc(Cl)cc1C` (stereo not given), the GI50 in the experiment on A549 was > 100 µM (inactive); in the experiment with CCRF-CEM, > 100 µM (inactive); with COLO 205 it was > 100 µM (inactive); in the experiment with EKVX it was > 100 µM (inactive); in the experiment on HCT-116, > 100 µM (inactive); with HCT-15, over 100 µM. Further, the GI50 in the experiment on IGROV-1 is > 100 µM (inactive); in the experiment with M14, > 100 µM (inactive); in the experiment with NCI-H226, 99.3 µM (inactive); in the experiment on NCI-H23 it was > 100 µM (inactive); in the experiment on OVCAR-8, > 100 µM (inactive); with SK-MEL-2, > 100 µM (inactive). The GI50 in the experiment with SK-MEL-5, in the experiment on SN12C, in the experiment on TK-10 and in the experiment with UACC-257 was > 100 µM (inactive) each time.
`O=C(Nc1ccc(Br)cc1)C(=O)C(C(=O)c1ccc(Cl)c(Cl)c1)C1OC(=O)c2ccccc21` (stereo not given): the GI50 in the experiment with A549 is 16.4 µM (inactive); in the experiment with CCRF-CEM, 10 µM (inactive); in the experiment on COLO 205 it was 16.4 µM (inactive); in the experiment on EKVX it was 28.8 µM (inactive); in the experiment with HCT-116, 12.5 µM (inactive); in the experiment on HCT-15, 20.9 µM. Moreover, the GI50 in the experiment on IGROV-1 is 18.5 µM (inactive); with M14 it was 15.4 µM (inactive); in the experiment with NCI-H226, 4.56 µM (inactive); in the experiment on NCI-H23, 13.9 µM (inactive); with OVCAR-8, 12.3 µM (inactive); in the experiment on SN12C, 20.2 µM (inactive). The GI50 in the experiment on SNB-75 is 20.8 µM (inactive); with TK-10, 20.2 µM (inactive); in the experiment with UACC-257, 16 µM (inactive).
